Values joined by “and” are separate entries in the source; they are usually repeats but may differ in a detail not shown here. Identical values can stand only once. No end group written: not given here.
Key:
[1] = target: DPP-IV (Homo sapiens, UniProt P27487); experiment: Stability of P7 in the presence of DPP-IV; type: in vitro ADME; details: P7 (500 μM) with purified recombinant DPP-IV, Tris–HCl pH 8.0, 37 °C, 5, 30 and 120 min; LC–MS MRM
Method: The experiments were carried out in microcentrifuge tubes. Each reaction (100 μL) was prepared by adding the reagents in the following order: 1× DPP-IV assay buffer [20 mM Tris–HCl at pH 8.0 containing 100 mM NaCl and 1 mM ethylenediaminetetraacetic acid (EDTA)] (80 μL), P7 solution (10 μL, 500 μM), and finally DPP-IV (10 μL). Subsequently, the samples were mixed and kept at 37 °C in a thermoblock for 5, 30, and 120 min. At the end of the reactions, DPP-IV was inactivated by adding 200 μL of precooled acetonitrile (ACN) to each tube; then the samples were centrifuged for 10 min at 13300g at 4 °C; and the supernatant was collected. P7 and LTFPG were loaded onto the enrichment column (Zorbax 300SB-C18, 5 μm pore size) at a flow rate of 4 μL/min using isocratic 100% C solvent phase (99% water, 1% ACN, and 0.1% formic acid). After the cleanup, P7 and LTFPG were separated on a 150 mm × 75 μm analytical column (Zorbax300SB-C18, 5 μm pore size) at the constant flow rate of 300 nL/min. The LC solvent A was 95% water, 5% ACN, and 0.1% formic acid; solvent B was 5% water, 95% ACN, and 0.1% formic acid. The nanopump gradient program was as follows: 5% solvent B (0 min), 70% solvent B (0–8 min), and back to 5% solvent B in 2 min. Post-time was 10 min. The drying gas temperature was 300 °C, and the flow rate was 3 L/min (nitrogen). Data acquisition occurred in positive ionization mode. […]

[2] = system: differentiated Caco-2 cell monolayers; experiment: Transepithelial transport and metabolism across differentiated Caco-2 cell monolayers; type: in vitro ADME, human; details: for detected at the AP side, P7 tested within a mixture: AP solutions of differentiated Caco-2 collected after 120 min; for amount in the BL compartment after 60 min, peptide alone / amount in the BL compartment after 60 min, P7 in the mixture / absorbed amount after 2 h, P7 in the mixture: HPLC–Chip–MS/MS; for rate of transport, peptide alone: AP pH 6.0 (MES), BL pH 7.4
Method: For differentiation, Caco-2 cells were seeded on polycarbonate filters with a 12 mm diameter and 0.4 μm pore diameter (Transwell, Corning, Inc., Lowell, MA, U.S.A.) at a 3.5 × 10^5 cells/cm^2 density in complete medium supplemented with 10% FBS in both AP and BL compartments for 2 days to allow for the formation of a confluent cell monolayer. Starting from day 3 after seeding, cells were transferred to FBS-free medium in both compartments, supplemented with ITS [final concentration of 10 mg/L insulin (I), 5.5 mg/L transferrin (T), and 6.7 μg/L sodium selenite (S), GIBCO–Invitrogen, San Giuliano Milanese, Italy] only in the BL compartment, and allowed to differentiate for 18–21 days with regular medium changes 3 times weekly.[12]
The transepithelial electrical resistance (TEER) of differentiated Caco-2 cells was measured at 37 °C using the voltmeter apparatus Millicell (Millipore Co., Billerica, MA, U.S.A.), immediately before and at the end of the transport experiments. In addition, at the end of transport experiments, cells were incubated from the AP side with 1 mM phenol red in phosphate-buffered saline (PBS) containing Ca^2+ (0.9 mM) and Mg^2+ (0.5 mM) for 1 h at 37 °C, to monitor the paracellular permeability of the cell monolayer. The BL solutions were then collected, and NaOH (70 μL, 0.1 N) was added before reading the absorbance at 560 nm by a microplate reader Synergy H1 from Biotek (Winooski, VT, U.S.A.). Phenol red passage was quantified using a standard phenol red curve. Only filters showing TEER values and phenol red passages similar to untreated control cells were considered for peptide transport analysis.
Prior to experiments, the cell monolayer integrity and differentiation were checked by TEER measurement as described in detail above. Cells were then washed twice, and peptide transportation by intestinal cells was assayed. Transport experiments were performed in transport buffer solution (137 mM NaCl, 5.36 mM KCl, 1.26 mM CaCl2, 1.1 mM MgCl2, and 5.5 mM glucose) following conditions previously described.[13] To reproduce the pH conditions existing in vivo in the small intestinal mucosa, AP solutions were maintained at pH 6.0 (buffered with 10 mM morpholinoethanesulfonic acid) and BL solutions were maintained at pH 7.4 (buffered with 10 mM N-2-hydroxyethylpiperazine-N-4-[…]). Prior to transport experiments, cells were washed twice with 500 μL of PBS containing Ca^2+ and Mg^2+. Peptide transportation by mature Caco-2 cells was assayed by loading the AP compartment with P7 and/or LTFPG (500 μM) in the AP transport solution (500 μL) and the BL compartment with the BL transport solution (700 μL). The plates were incubated at 37 °C, and the BL solutions were collected at different time points (i.e., 15, 30, 60, 90, and 120 min) and replaced with fresh solutions prewarmed at 37 °C. All BL solutions together with the AP solutions collected at the end of the transport experiment were stored at −80 °C prior to analysis. Three independent transport experiments were performed, each in duplicate.
Quantitative analysis of P7 in the AP and BL samples were carried out by ion trap mass spectrometry (MS) in multiple reaction monitoring (MRM) mode, monitoring two of the most intense diagnostic transitions, after optimization of the acquisition parameters, such as retention time, MS profile, and tandem mass spectrometry (MS/MS) fragmentation spectrum.[14],[15] All further details regarding liquid chromatography–tandem mass spectrometry (LC–MS/MS) operating conditions and method validations are described in the Supporting Information.
The metabolic degradation products deriving from the hydrolytic activity of brush border membrane peptidases were investigated by an untargeted approach (for further details, see the Supporting Information). […]

[3] = target: purified human recombinant DPP-IV enzyme (Homo sapiens, UniProt P27487); details: read-out: IC50, in vitro on the DPP-IV enzyme; cited from earlier work
Sequence of purified human recombinant DPP-IV enzyme (P27487 whole entry): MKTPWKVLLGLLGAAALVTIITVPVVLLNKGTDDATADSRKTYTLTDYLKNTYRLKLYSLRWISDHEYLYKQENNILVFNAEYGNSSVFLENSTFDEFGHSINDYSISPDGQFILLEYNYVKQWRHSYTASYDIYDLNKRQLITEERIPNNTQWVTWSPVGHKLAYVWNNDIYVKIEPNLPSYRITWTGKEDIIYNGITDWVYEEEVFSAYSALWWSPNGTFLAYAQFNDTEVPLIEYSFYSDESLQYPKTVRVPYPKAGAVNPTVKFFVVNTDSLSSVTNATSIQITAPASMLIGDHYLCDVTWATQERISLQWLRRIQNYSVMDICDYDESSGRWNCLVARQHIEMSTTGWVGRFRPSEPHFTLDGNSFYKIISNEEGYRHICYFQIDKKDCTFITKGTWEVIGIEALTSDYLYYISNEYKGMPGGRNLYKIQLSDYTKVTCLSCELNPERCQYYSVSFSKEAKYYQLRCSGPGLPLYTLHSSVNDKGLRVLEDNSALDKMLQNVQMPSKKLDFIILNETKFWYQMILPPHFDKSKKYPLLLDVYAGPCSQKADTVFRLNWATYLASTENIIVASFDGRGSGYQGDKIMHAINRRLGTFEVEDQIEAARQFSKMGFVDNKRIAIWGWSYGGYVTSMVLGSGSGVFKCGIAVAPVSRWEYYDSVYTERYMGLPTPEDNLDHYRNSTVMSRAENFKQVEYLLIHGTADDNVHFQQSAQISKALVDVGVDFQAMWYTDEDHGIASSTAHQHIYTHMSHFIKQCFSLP

[4] = untargeted HPLC–Chip–MS/MS, × = detected
[5] = differentiated Caco-2, AP to BL, peptide alone, 500 μM in AP, 37 °C, AP pH 6.0, BL pH 7.4
[6] = differentiated Caco-2, AP to BL, peptide alone, 500 μM in AP, 37 °C, AP pH 6.0, BL pH 7.4, mean ± sd
[7] = differentiated Caco-2 on Transwell, AP to BL, peptide alone, 500 μM in AP, 37 °C, BL sampled 15–120 min, HPLC–Chip–MS/MS MRM, mean ± sd, three independent experiments
[8] = differentiated Caco-2, AP to BL, mixture with P3 and P5, each 500 μM in AP, 37 °C
[9] = differentiated Caco-2, AP to BL, mixture with P3 and P5, each 500 μM in AP, 37 °C, mean ± sd

Sequence of DPP-IV (P27487 whole entry): as above

Row | Substance | hydrolysis of P7 by DPP-IV (formation of LTFPG) [1] | detected at the AP side, P7 tested within a mixture [2, 4] | amount in the BL compartment after 60 min, peptide alone [2, 5] | amount in the BL compartment after 60 min, peptide alone [2, 6] | lag period for transport, peptide alone ([2]; differentiated Caco-2, AP to BL, peptide alone, 500 μM in AP, AP pH 6.0, BL pH 7.4, 37 °C) | rate of transport, peptide alone [2, 7] | transport in the presence of wortmannin ([2]; mature Caco-2 cells, wortmannin, inhibitor of the transcellular passage) | IC50 [3] | detected at the AP side, P7 tested as individual species (alone) ([2]; AP solutions of differentiated Caco-2 at the end of the transport experiment, untargeted HPLC–Chip–MS/MS, × = detected) | fold higher amount in BL when tested alone than in the mixture ([2]; after 60 min of incubation) | amount in the BL compartment after 60 min, P7 in the mixture [2, 8] | amount in the BL compartment after 60 min, P7 in the mixture [2, 9] | absorbed amount after 2 h, P7 in the mixture [2, 8] | absorbed amount after 2 h, P7 in the mixture [2, 9] | lag period for transport, P7 in a mixture ([2]; differentiated Caco-2, AP to BL, mixture with P3 and P5, each 500 μM in AP, AP pH 6.0, BL pH 7.4, 37 °C) | rate of transport, P7 in a mixture ([2]; differentiated Caco-2 on Transwell, AP to BL, mixture with P3 and P5, each 500 μM in AP, AP pH 6.0, BL pH 7.4, 37 °C, BL sampled 15–120 min, HPLC–Chip–MS/MS MRM, mean ± sd, three independent experiments)
1 | LTFPG [LTFPG] | clearly detectable after 2 h of incubation | × | 0.412 nmol | 0.22 ± 0.003 µg | without a lag period | 3.7 ± 0.8 ng mL^–1 min^–1 | transported also in the presence of wortmannin | – | – | – | – | – | – | – | – | –
2 | LTFPGSAED [P7] | subjected to DPP-IV hydrolysis | × | 0.278 nmol | 0.26 ± 0.02 µg | – | 4.2 ± 0.6 ng mL^–1 min^–1 | – | 228 µM | × | about 4 fold | 0.064 nmol | 0.06 ± 0.003 µg | 0.235 nmol | 0.22 ± 0.5 µg | 27.7 min and 27 min | 1.98 ± 0.21 ng mL^–1 min^–1
